≈ marks a conversion by molar mass, not a printed value.
Legend:
[1] = cited from earlier work
[2] = Solubility of PMIDA in water and HCl at various temperatures and pressures; assay type: physicochemical; settings: for solubility thermodynamic: aqueous buffer, thermodynamic from solid
Source text: In certain embodiments, the organophosphorous compound comprising a phosphonoalkyl moiety is at least partially solubilized in the acid component. As used herein, the term “at least partially solubilized,” and grammatical variants thereof, with reference to the organophosphorous compound comprising a phosphonoalkyl moiety in the acid component refers to dissolution of at least about 2% weight per volume (w/v) of the organophosphorous compound comprising a phosphonoalkyl moiety in the acid component at room temperature. As used herein, the term “room temperature” refers to about 15° C. to about 25° C. The remaining excess organophosphorous compound comprising a phosphonoalkyl moiety may be suspended in the acid component while it is undergoing dynamic fluid flow at room temperature. As temperatures increase (e.g., as the treatment fluid is introduced into a subterranean formation and encounters downhole temperatures), the solubility of the organophosphorous compound comprising a phosphonoalkyl moiety in the acid component may increase. Indeed, the solubility of the organophosphorous compound comprising a phosphonoalkyl moiety increases as a function of acid concentration, and temperature.

Compound | pKa values [1] | solubility thermodynamic ([2]; 7.5% HCl, 37.8 °C, Atm., 100° F.) [mg/mL] | solubility thermodynamic ([2]; 7.5% HCl, 65.6 °C, Atm., 150° F.) [mg/mL] | solubility thermodynamic ([2]; 10% HCl, 37.8 °C, Atm., 100° F.) [mg/mL] | solubility thermodynamic ([2]; 10% HCl, 65.6 °C, Atm., 150° F.) [mg/mL] | solubility thermodynamic ([2]; 10% HCl, 93.3 °C, Atm., 200° F.) [mg/mL] | solubility thermodynamic ([2]; 15% HCl, 37.8 °C, 200 psi, 100° F.) [mg/mL] | solubility thermodynamic ([2]; 15% HCl, 37.8 °C, Atm., 100° F.) [mg/mL] | solubility thermodynamic ([2]; 15% HCl, 65.6 °C, 200 psi, 150° F.) [mg/mL] | solubility thermodynamic ([2]; 15% HCl, 65.6 °C, Atm., 150° F.) [mg/mL] | solubility thermodynamic ([2]; 15% HCl, 93.3 °C, 200 psi, 200° F.) [mg/mL] | solubility thermodynamic ([2]; 15% HCl, 93.3 °C, Atm., 200° F.) [mg/mL] | Solubility Average ([2]; Atm., 7.5% HCl, 200° F.) [w/v %]
O=C(O)CN(CCO)CC(=O)O [HEIDA, N-(2-hydroxyethyl)iminodiacetic acid] | about 2.2 |  |  |  |  |  |  |  |  |  |  |  | 
O=C([O-])CC(NC(C(=O)[O-])C(O)C(=O)[O-])C(=O)[O-].[Na+].[Na+].[Na+].[Na+] (centres unmarked) [HIDS, tetrasodium 3-hydroxy-2,2′-iminodisuccinate] | about 2.83 |  |  |  |  |  |  |  |  |  |  |  | 
O=C(O)CN(CC(=O)O)CP(=O)(O)O [PMIDA, N-(phosphonomethyl)iminodiacetic acid] |  | 17.4 (≈ 76.6 mM) | 39.7 (≈ 175 mM) | 20 (≈ 88.1 mM) | 49.1 (≈ 216 mM) | 101 (≈ 445 mM) | 41.1 (≈ 181 mM) | 30.6 (≈ 135 mM) | 95.7 (≈ 421 mM) | 72.2 (≈ 318 mM) | 203 (≈ 896 mM) | 166 (≈ 731 mM) | 10.00

From patent US20230065437A1, “ACIDIZING OF SUBTERRANEAN FORMATIONS WITH PLACEMENT OF SCALE INHIBITOR” (priority 2021, published 2023)
